Tests used:
[1] = target: T1, BceAB (isolated transporter) (Bacillus subtilis, UniProt O34697); details: MgCl2, 37 °C, 30 min, detergent solubilized
T1 construct: gene bceA

BceAB-S complex [2] = target: T2, BceAB-S complex (Bacillus subtilis, UniProt O34697); parameters: gene bceA; details: MgCl2, 37 °C, 30 min, detergent solubilized
BceAB-S complex [3] = target: T2, BceAB-S complex; experiment: cryo-EM structure of the complex; format: binding; parameters: gene bceA; full-length; petDUET-1, E. coli C41(DE3); LMNG-solubilized; BceA:B:S 2:1:2; with Bacitracin export permease protein BceB; Sensor protein BceS; details: 5 mM ATPγS, 5 mM MgCl2, LMNG; bound at Walker A motif and Tyr13 of BceA
[4] = target: T3, BceAB ABC transporter (BceA2:BceB1) (B. subtilis, UniProt O34697 2-253; O34741 1-646); experiment: cryo-EM structure; nucleotide-free BceAB-S, co-expressed and co-purified complex in LMNG at ~7 mg/mL; Titan Krios, K3; details: both partners purified
T3 construct: BceA of Bacillus subtilis, as m1; BceB of Bacillus subtilis, as m2; The construct for isolated BceAB (without BceS) is not described here; also called BceAB transporter; isolated BceAB; source: E. coli C41(DE3), co-expressed (with or without BceS), purified (LMNG, Co3+-Talon, Superdex 200); not shown: His6, N-terminal, kept; copies: 2 + 1
T3 sequence 1: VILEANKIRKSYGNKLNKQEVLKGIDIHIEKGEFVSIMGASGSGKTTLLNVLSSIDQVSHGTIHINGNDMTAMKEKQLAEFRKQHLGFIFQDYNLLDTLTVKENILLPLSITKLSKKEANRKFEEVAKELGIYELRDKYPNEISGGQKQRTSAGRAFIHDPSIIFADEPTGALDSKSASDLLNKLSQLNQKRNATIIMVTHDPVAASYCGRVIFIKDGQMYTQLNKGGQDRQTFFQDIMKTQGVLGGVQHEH
T3 sequence 2: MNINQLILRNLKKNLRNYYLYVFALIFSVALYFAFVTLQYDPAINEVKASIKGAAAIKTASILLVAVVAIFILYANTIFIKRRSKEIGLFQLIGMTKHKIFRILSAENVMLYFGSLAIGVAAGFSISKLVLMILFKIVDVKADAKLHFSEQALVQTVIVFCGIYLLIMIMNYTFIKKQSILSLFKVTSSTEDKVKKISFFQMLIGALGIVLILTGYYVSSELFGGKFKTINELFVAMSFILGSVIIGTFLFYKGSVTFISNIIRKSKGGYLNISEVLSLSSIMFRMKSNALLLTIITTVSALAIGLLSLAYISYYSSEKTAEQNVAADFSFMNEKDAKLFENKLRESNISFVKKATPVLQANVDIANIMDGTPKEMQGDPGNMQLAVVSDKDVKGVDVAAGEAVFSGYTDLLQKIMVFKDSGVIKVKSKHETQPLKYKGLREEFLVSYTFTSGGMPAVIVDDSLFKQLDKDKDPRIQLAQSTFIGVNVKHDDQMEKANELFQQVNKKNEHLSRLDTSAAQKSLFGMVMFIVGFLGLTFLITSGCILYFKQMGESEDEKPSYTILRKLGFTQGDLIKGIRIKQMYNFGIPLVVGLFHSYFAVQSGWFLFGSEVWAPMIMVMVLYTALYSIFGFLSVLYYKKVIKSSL

[5] = target: the molecule itself; experiment: as above
[6] = target: the molecule itself; experiment: cryo-EM structure; BceAB-S, co-expressed and co-purified complex in LMNG, incubated on ice with 5 mM ATPγS and 5 mM MgCl2 for 30 min before freezing

T2 sequence (O34697 whole entry, one chain of several): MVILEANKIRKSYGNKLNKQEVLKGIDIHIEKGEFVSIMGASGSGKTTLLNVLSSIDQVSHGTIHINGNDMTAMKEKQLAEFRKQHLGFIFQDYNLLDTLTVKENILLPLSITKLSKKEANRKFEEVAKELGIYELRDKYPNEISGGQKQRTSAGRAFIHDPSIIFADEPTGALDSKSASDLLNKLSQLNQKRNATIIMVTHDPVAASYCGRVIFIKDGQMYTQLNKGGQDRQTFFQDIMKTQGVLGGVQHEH
T1 sequence (O34697 whole entry, one chain of several): as above

Nc1ncnc2c1ncn2[C@@H]1O[C@H](COP(=O)(O)OP(=O)(O)OP(=O)(O)O)[C@@H](O)[C@H]1O [ATP]
colorimetric phosphate-release ATPase assay [1]: significantly reduced maximal ATPase activity compared to the isolated BceAB transporter | colorimetric phosphate-release ATPase assay (BceAB-S complex [2]): The BceAB-S complex displayed significantly reduced maximal ATPase activity

Nc1ncnc2c1ncn2[C@@H]1O[C@H](COP(=O)(O)OP(=O)(O)OP(O)(O)=S)[C@@H](O)[C@H]1O [ATPγS]
cryo-EM structure of the complex (BceAB-S complex [3]): ATPγS engages the Walker-A motif and Tyr13 in the A-loop of BceA

B1: BceS sensor histidine kinase (natural protein, B. subtilis, UniProt O35044 1-334, looked up)
chain: MIKAFLIERRSWIAAFLFQQALMLFIAFVDPSISFGNVLYMVYLCILFFIIFLWFRYRKETAFYKSLKTWENNLDVTAINEPETPFEAMVERSIAGQTEHLKQTAARHRLALENEKDELMAWIHEVKTPLTAMHLIIDRMEEKALKSQLSYEWLRIHLLLDQQLHQKRISFIENDLSVEFIQLQPLIFKEIKDLQSWCIQKGIGFDIQLEAKEVLSDAKWLAFIIRQLLTNAVKYSEASEIEIKSFQKGEQTQLQVKDCGRGIDPKDVPRIFDKGFTSTTDHHDQASTGMGLYLAKKAAAPLLIHIDVESEFGAGTVFTLTFPIRNQFEHVISV
notes: BceS of Bacillus subtilis; gene PCR amplified from B. subtilis genomic DNA; Dimer in the BceAB-S complex; also called BceS kinase; BceS dimer
stoichiometry N [4]: 2 BceS per BceAB (BceA2:BceB1) | stoichiometry N [5]: 2

B2: BceA, ATPase (nucleotide binding domain) subunit of the ABC transporter BceAB (natural protein, B. subtilis)
chain: VILEANKIRKSYGNKLNKQEVLKGIDIHIEKGEFVSIMGASGSGKTTLLNVLSSIDQVSHGTIHINGNDMTAMKEKQLAEFRKQHLGFIFQDYNLLDTLTVKENILLPLSITKLSKKEANRKFEEVAKELGIYELRDKYPNEISGGQKQRTSAGRAFIHDPSIIFADEPTGALDSKSASDLLNKLSQLNQKRNATIIMVTHDPVAASYCGRVIFIKDGQMYTQLNKGGQDRQTFFQDIMKTQGVLGGVQHEH
notes: BceA of Bacillus subtilis; gene PCR amplified from B. subtilis genomic DNA together with the overlapping bceB gene; Two copies of BceA stand in the BceAB-S complex (BceA:B:S 2:1:2); No cleavage of the His tag is told; also called BceA NBDs; BceA subunits; not shown: His6, N-terminal, kept
binding result [6]: binds
